# Like-named read-outs stand apart in the source and are kept apart here.
# Key:
# P-gp (MDR1) = assay: MDCK-MDR1 permeability assay; type: in vitro ADME; settings: dog
# Method: Permeability measurements were conducted according to the Cyprotex protocol using the MDCK-MDR1 cell line obtained from the NIH (Rockville, Md., USA). […] The cells in this assay form a cohesive sheet of a single cell layer filing the surface area of the culture dish, also known as a confluent monolayer, and on day four the test compound was added to the apical side of the membrane and the transport of the compound across the monolayer was monitored over a time period of 60 min.
# Test compounds were dissolved in DMSO at a concentration of 10 mM. The dosing solutions were prepared by diluting test compound with assay buffer (Hanks Balanced Salt Solution), pH 7.4, at a final concentration of 5 μM. For assessment of apical to basolateral (“A-B”) permeability, buffer was removed from the apical compartment and replaced with test compound dosing solution with or without the permeability glycoprotein (“PgP”, “P-gP”, “Pgp” or “P-gp”) inhibitor elacridar (2 μM). For assessment of basolateral to apical (“B-A”) permeability, buffer was removed from the companion plate and replaced with test compound dosing solution. Incubations were carried out in duplicate at 37° C. in an atmosphere of 5% CO2 with a relative humidity of 95%. Each assay included the reference markers propranolol (high permeability) and prazosin (PgP substrate). After incubation for 60 minutes, apical and basolateral samples were diluted and test compounds quantified by LC/MS/MS using an 8-point calibration in the range 0.0039 to 3 μM with appropriate dilution of the samples (receiver dilution factor=1; donor and Co dilution factor=10). The permeability coefficient (Papp) for each compound was calculated from the following equation: Papp=(dQ/dt)/(C0×S), where dQ/dt is the rate of permeation of the drug across the cells, C0 is the donor compartment concentration at time zero, and S is the area of the cell monolayer.
# Papp(A-B) gives an indication of permeation extent across the cells in this assay, which is envisaged to model the transcellular transport across Pgp-expressing cells, such as Pgp-expressing gastrointestinal tract cells.
# [1] = Plasma and colon concentrations after p.o. dosing (Protocols 1 and 2); type: in vivo, female C57BL/6 mice; settings: female, C57BL/6, mouse, po, mice, 25 mg/kg p.o.
# Method: These protocols are described below under the heading In vivo Studies.
# (§1) Three non-fasted female C57BL/6 mice were orally administered test compound at a dose of 25 mg/kg p.o. as a solution in 20% hydroxypropyl-beta-cyclodextrin (HPβCD) at a dose volume of 5 mL/kg. Blood samples were collected at 0.5, 2, and 4 h post dose via retro-orbital bleed or venipuncture of the dorsal metatarsal vein. Blood samples were collected into tubes containing anticoagulant (Heparin-Na) and placed on wet ice. The plasma fraction was separated by centrifugation and frozen at −20° C. for up to 4 h and −80° C. after 4 h unless analyzed shortly after sample collection. Colon samples were collected at 4 h post dose. From the beginning of the cecum, a 4-6 cm sample of the colon was dissected, cut open on the longitudinal axis, and the solid contents removed by flushing with 2 mL of saline. The colon was further washed by putting it in 5 mL of saline and shaken for 5 seconds. The colon sample was then patted dry, weighed, and homogenized as 1 part tissue (g) to 4 parts HPLC grade water (mL). Concentrations of the compound in plasma and colon homogenate were determined using a qualified liquid chromatography-triple quadrupole mass spectrometry (LC-MS/MS) method.
# as §1, with “HPβCD” for “hydroxypropyl-beta-cyclodextrin (HPβCD)”, “or” for “or venipuncture of the”, “2 cm below” for “the beginning of”, “4” for “4-6”
smiles,measurement,setting,value
"N#CC[C@H]1CC[C@H](n2c(-c3c[nH]cn3)nc3cnc4[nH]ccc4c32)CC1 [Ex. 2, 2-((1r,4r)-4-(2-(1H-Imidazol-4-yl)imidazo[4,5-d]pyrrolo[2,3-b]pyridin-1(6H)-yl)cyclohexyl)acetonitrile]","Papp A→B at 60 min, 5 µM","P-gp (MDR1); MDCK-MDR1, pH 7.4, apical-to-basolateral, without elacridar, 5 μM, 60 min",1.1 ×10⁻⁶ cm/s
same,"Papp B→A at 60 min, 5 µM","P-gp (MDR1); MDCK-MDR1, pH 7.4, basolateral-to-apical, 5 μM, 60 min",4.8 ×10⁻⁶ cm/s
same,"efflux ratio at 60 min, 5 µM","P-gp (MDR1); pH 7.4, MDCK-MDR1, 5 μM, read-out: Papp(B-A)/Papp(A-B) (efflux ratio)",4.4
same,concentration at 4 h,"[1]; colon, read-out: Colon Concentration After p.o. Dosing, Mean",7600 ng/g
same,concentration at 0.5 h,"[1]; plasma, Time = 0.5 h",24.5 ng/mL
same,concentration at 2 h,"[1]; plasma, Time = 2 h",4.2 ng/mL
same,concentration at 4 h,"[1]; plasma, read-out: Plasma Concentration After p.o. Dosing, Mean",1.3 ng/mL

# Source: US11059823B2, “Small molecule inhibitors of the JAK family of kinases” (Janssen Pharmaceutica NV, priority 2016, dated 2021)
